Values quoted from earlier work as cited in patent publication EP2497775A1, “Ferrocene-based compounds and their use as ROS regulating prodrugs” (Ruprecht-Karls-Universität Heidelberg, priority 2011, dated 2012).

Assays:
(Human, breast) = conditions: ref. [1]; cited from earlier work
WiDr (Human, colon) = conditions: ref. [1]; cited from earlier work
8226 (Human myeloma) = conditions: ref. [1]; cited from earlier work
[1] = tested on: different neuroblastoma cell lines; conditions: ref. [2]; cited from earlier work
HT29 (Human, colon) = conditions: ref. [4]; cited from earlier work
SW480 (Human, colon) = conditions: ref. [3]; cited from earlier work
HL-60 (leukemia) = conditions: ref. [8]; cited from earlier work
HCT8 (colon) = conditions: ref. [8]; cited from earlier work
Human multiple myeloma = conditions: ref. [7]; cited from earlier work

## CCCCS(=N)(=O)CCC(N)C(=O)O (stereo not drawn) [Buthionine sulfoximine (BSO), Buthionine sulfoximine]
(Human, breast)
  IC50: 850 µM
WiDr (Human, colon)
  IC50: 450 µM
8226 (Human myeloma)
  IC50: 2 µM
[1]
  IC50: 0.3 to 311 µM

## CC(=O)Oc1ccccc1C(=O)Oc1cccc(CO[N+](=O)[O-])c1 [NO-ASA]
HT29 (Human, colon)
  IC50: 3 to 7 µM
SW480 (Human, colon)
  IC50: 85 µM

## CC1(C)CCC2=C(O1)c1ccccc1C(=O)C2=O [β-Lapachone]
HL-60 (leukemia)
  IC50: 1.65 µM
HCT8 (colon)
  IC50: 0.83 µM
Human multiple myeloma
  IC50: 1 µM
